The target of assay [1] is T1, calcium channel (nitrendipine binding) (Oryctolagus cuniculus, UniProt P15381).
T1 construct: the heart was immediately removed, cleaned and chopped into small pieces; from tissue; host or cells: rabbit heart, crude membrane pellet (42,000×g)
The assay can be described thus: Inhibition of 3H-nitrendipine binding (heart membranes), calcium channel blocking activity. The arrangement: species or system female New Zealand white rabbits. The following applies: 3H-nitrendipine 0.05-0.50 nM; rabbit heart membranes; 90 min at 4° C.; pH 7.4; read-out: B: IC50 (inhibition of nitrendipine binding). On the procedure: (§1) The calcium channel blocking activity of the above compounds was determined by measuring (A) the inhibition of calcium dependent smooth muscle contraction and (B) inhibition of nitrendipine binding as follows.
(B) The inhibition of nitrendipine binding was determined by following the procedures of Bolger et al., Biochem. Biophys. Res. Comm. 104, 1604 (1982) and Ehlert et al., Life Sciences 30, 2191 (1982). Basically, female New Zealand white rabbits (1-2 kg) were sacrificed by cervical dislocation, and the heart was immediately removed, cleaned and chopped into small pieces. The tissue was homogenized in 5× volume of 0.05M Hepes buffer, pH 7.4. The homogenate was centrifuged at 400×g for 10 minutes; the supernatant was recentrifuged at 42,000×g for 90 minutes. The resulting membrane pellet was resuspended (0.7 ml/g weight) in 0.05M Hepes, pH 7.4, and stored at -70° C. until used. Each tube of the binding assay contained ^3 H-nitrendipine (0.05-0.50 nM), buffer, membranes (0.10 ml), and test compound in a total volume of 1.0 ml. After 90 minutes at 4° C., the bound nitrendipine was separated from the unbound by filtration to Whatman GF/C fibers. After rinsing, the filters were dried and counted in a liquid scintillation counter.
Non-specific binding of ^3 H-nitrendipine (that amount bound in the presence of excess unlabelled nitrendipine) was subtracted from the total bound to obtain specifically bound radiolabeled nitrendipine. The amount of specifically bound nitrendipine in the presence of a test compound was compared to that amount bound in the absence of a compound. A percent displacement (or inhibition) was then obtained.

Another assay concerns gastric acid secretion. As to the kind of experiment: Antisecretory activity: gastric acid secretion in pylorus-ligated rats. The class given is in vivo, male Charles River Sprague Dawley derived rats. The note with it: Rattus norvegicus, intraduodenal or s.c., 4 h after ligation, acid output compared to control, read-out: % Acid Secreted. How it is done: The antisecretory activity of the above compounds was determined by measuring gastric acid secretion using pylorus ligation in a modification of the procedure of Shay et al., Gastroenterology 26, 906 (1954). Basically, male Charles River Sprague Dawley derived rats weighing 150-300 grams were deprived of food but not water for 18-24 hours prior to use. Water was withheld during the experiment, however. The rats were weighed, anesthesized with ether and the pylorus ligated according to the method of Shay et al., supra. Treatment or vehicle control was then administered intraduodenally (i.d.) or subcutaneously (s.c.). Rats were housed two/cage and sacrificed with CO2 four hours after ligation. The stomachs were removed, rinsed, and contents emptied into a graduated centrifuge tube. The tubes were centrifuged, the volume of gastric juice recorded, and any samples obviously contamined by feces, food or blood were eliminated. A 1 ml aliquot of gastric juice was titrated with 0.1N NaOH to a pH of 7.0-7.4. The volume of gastric juice secreted, the acid concentration, and the product of the volume times the concentration, i.e., the total amount of acid secreted, were measured.

Assay [2] relates to calcium dependent smooth muscle contraction (trachealis muscle tissue). The assay can be described thus: Inhibition of calcium dependent smooth muscle contraction (tracheal rings, KCl challenge). The class given is cell-based, dogs. The note with it: Canis lupus familiaris, 10 μM test compound for 10 min, dog tracheal rings, 30 min, 37° C. On the procedure: as §1
(A) Trachea from dogs sacrificed by excess KCl injection were stored overnight at 4° C. in oxygenated Krebs-Henseleit buffer. Tracheal rings, one cartilage segment wide (5-10 mm) were cut starting from the bronchial end. After cutting the cartilage, the trachealis muscle tissue was suspended in oxygenated Krebs-Henseleit buffer at 37° C. in a 25 ml tissue bath. After a 60 minute equilibration period, the tissues were challenged with 10 μM carbachol. After five minutes, the tissues were rinsed and allowed to rest 50 minutes. The tissues were then challened with 50 mM KCl and, after 30 minutes, the contracts were quantitated. The tissues were then rinsed and re-equilibrated for 50 minutes. Test compounds were then added at 10 μM for 10 minutes, and the tissues were rechallenged with 40 mM KCl.
The percent inhibition of smooth muscle contraction was calculated from response data before and after drug treatment. [formula]

Assay [3] concerns quadriceps femoris muscle of one hind leg. The assay can be described thus: Local anesthetic activity: impaired ability of mice to grasp inverted screen after injection into quadriceps femoris muscle. The class given is in vivo, male albino overnight-fasted mice. The note with it: Mus musculus, im, 5 min; overnight-fasted mice; 0.05 ml solution or suspension (w/v) injected into quadriceps femoris muscle of one hind leg; observed 5 min later; read-out: Concentration (in %) of Compound Causing Local Anesthetic Activity. On the procedure: The local anesthetic activity of the above compounds was tested as follows.
The test compounds were dissolved or suspended in a 0.5% aqueous methylcellulose solution containing 0.4% (v/v) of Tween 80, The polyoxyethylene derivative of a sorbitan ester. Doses of up to 100 mg/kg were administered orally by gagvage tube to groups of three male albino overnight-fasted mice (18 to 24 g) which were observed intermittently for one hour. The mice were gently restrained and 0.05 ml of a 1% (w/v) solution or suspension of the test compound was injected into the quadriceps femoris muscle of one hind leg. Five minutes later, the mice were individually placed on a wire mesh screen. The wire mesh screen was then inverted. […] The response to the test compounds was compared to a similarly treated vehicle control group of mice.

T1 sequence (P15381 whole entry, other chains not shown): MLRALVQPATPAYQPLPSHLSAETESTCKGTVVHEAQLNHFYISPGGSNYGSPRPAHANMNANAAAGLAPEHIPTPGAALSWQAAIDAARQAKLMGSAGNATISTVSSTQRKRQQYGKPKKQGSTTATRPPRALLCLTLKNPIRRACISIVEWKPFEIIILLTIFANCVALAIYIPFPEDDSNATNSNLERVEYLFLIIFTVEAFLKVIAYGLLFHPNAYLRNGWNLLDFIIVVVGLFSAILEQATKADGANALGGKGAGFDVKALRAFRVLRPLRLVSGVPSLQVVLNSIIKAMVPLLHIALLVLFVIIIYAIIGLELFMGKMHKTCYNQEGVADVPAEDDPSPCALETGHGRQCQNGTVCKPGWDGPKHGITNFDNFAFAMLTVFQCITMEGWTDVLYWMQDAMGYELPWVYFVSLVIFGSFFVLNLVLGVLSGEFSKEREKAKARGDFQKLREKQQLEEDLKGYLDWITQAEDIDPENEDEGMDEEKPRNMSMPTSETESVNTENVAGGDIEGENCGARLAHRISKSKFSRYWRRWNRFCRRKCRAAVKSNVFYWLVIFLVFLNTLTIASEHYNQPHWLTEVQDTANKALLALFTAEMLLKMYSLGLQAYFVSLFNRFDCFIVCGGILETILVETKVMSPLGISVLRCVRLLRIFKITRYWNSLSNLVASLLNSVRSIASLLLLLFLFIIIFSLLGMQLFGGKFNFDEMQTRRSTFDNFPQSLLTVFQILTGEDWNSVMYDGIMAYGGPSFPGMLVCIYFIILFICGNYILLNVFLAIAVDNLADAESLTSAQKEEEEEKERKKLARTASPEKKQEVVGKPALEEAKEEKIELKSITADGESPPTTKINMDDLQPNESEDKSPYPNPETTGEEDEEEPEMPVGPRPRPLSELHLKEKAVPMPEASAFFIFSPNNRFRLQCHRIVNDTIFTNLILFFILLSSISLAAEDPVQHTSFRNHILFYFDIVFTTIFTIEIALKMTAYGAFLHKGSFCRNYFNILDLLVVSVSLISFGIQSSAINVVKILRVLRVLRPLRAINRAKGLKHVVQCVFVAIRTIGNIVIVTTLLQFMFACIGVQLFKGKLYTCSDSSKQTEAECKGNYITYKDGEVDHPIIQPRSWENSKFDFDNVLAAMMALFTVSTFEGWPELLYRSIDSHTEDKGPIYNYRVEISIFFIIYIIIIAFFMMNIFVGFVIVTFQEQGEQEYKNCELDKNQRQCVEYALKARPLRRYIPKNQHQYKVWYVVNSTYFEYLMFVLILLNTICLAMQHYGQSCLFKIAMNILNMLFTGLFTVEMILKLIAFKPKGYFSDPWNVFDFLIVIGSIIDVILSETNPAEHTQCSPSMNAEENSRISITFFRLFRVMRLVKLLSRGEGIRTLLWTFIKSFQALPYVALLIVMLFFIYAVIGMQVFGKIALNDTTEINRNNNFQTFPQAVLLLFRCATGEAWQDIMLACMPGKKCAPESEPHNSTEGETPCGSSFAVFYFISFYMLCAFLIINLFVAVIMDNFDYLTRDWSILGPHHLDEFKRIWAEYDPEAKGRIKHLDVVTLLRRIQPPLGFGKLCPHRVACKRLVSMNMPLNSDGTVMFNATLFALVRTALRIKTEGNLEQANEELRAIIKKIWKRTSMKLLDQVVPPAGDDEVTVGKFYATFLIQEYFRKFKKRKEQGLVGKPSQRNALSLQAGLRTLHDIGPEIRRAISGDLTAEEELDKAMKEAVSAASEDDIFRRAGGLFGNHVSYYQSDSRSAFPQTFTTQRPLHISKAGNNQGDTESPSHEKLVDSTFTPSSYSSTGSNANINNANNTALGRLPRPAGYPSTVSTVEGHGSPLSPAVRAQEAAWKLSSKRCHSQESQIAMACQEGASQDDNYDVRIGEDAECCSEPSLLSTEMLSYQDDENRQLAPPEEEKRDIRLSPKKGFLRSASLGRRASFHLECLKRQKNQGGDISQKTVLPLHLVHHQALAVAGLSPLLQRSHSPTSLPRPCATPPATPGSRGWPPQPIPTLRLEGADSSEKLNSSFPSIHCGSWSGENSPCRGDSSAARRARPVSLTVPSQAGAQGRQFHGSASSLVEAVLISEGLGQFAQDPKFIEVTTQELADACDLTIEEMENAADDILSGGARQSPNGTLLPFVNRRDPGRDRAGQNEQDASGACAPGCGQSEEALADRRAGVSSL
T1 sequence (P13806 27-960 partner limits assumed, other chains not shown): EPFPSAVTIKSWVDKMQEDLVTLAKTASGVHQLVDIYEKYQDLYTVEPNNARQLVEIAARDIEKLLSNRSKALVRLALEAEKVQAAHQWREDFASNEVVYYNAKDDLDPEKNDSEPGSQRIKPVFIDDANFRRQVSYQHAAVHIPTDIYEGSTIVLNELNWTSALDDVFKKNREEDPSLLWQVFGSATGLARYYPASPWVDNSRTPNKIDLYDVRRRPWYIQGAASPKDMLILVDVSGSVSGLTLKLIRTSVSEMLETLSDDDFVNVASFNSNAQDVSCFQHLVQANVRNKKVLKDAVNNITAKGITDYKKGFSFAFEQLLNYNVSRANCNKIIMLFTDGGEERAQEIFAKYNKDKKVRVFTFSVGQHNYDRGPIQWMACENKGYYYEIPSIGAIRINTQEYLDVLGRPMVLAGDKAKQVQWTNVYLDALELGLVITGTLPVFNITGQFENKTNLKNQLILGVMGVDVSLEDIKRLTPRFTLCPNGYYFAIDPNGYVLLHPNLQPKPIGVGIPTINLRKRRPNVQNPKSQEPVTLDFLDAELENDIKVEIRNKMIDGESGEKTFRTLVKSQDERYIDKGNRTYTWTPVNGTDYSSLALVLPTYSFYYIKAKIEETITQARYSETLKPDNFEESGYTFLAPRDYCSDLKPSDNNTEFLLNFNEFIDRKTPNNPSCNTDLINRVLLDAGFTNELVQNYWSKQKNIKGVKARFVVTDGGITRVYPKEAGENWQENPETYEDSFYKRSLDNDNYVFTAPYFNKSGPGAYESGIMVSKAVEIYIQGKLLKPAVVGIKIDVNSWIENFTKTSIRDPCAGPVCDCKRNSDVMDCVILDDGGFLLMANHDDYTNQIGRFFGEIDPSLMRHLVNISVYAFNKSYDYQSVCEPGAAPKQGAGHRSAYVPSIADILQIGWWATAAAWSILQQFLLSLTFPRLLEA
T1 sequence (P13806 961-1106 partner limits assumed, other chains not shown): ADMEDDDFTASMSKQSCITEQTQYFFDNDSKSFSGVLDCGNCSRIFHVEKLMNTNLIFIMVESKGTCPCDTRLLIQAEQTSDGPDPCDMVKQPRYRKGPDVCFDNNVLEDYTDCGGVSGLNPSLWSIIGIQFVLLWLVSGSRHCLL

Turning to `CCCCN(CCCC)CCCOc1ccc(-c2cn3ccccc3n2)cc1` [Example 1, 2-(4-Dibutylaminopropoxyphenyl)imidazo[1,2-a]pyridine], the IC50 (commonly the concentration needed to halve the response being measured) in assay [1] was found to be 2.7 µM. Besides, the change in vivo at 20 mg/kg in the assay on gastric acid secretion was -41%. Moreover, the inhibition (as a rule, the change of the read-out against control, counted positive when it falls) at 10 µM in assay [2] was 54%. In assay [3], the minimal effective concentration came out at 1000 µg/mL.
The matching figures for `CCCCN(CCCC)CCCOc1ccc(-c2cn3cccc(C)c3n2)cc1` [Example 2, 2-(4-Dibutylaminopropoxyphenyl)-8-methylimidazo[1,2-a]pyridine]: 0.6 µM, -91%, 61% and 10 µg/mL.
The matching figures for `CCCCN(CCCC)CCCOc1ccc(-c2cn3cc(Br)ccc3n2)cc1` [Example 3, 2-(4-Dibutylaminopropoxyphenyl)-6-bromoimidazo[1,2-a]pyridine]: 2.5 µM, -18%, 32% and 10000 µg/mL.
Consider `CCCCN(CCCC)CCCOc1ccc(-c2cn3ccc(C)cc3n2)cc1` [Example 4, 2-(4-Dibutylaminopropoxyphenyl)-7-methylimidazo[1,2-a]pyridine], for which the IC50 in assay [1] is 6 µM. Moreover, in assay [2], the inhibition at 10 µM was 46%. The minimal effective concentration in assay [3] was determined as 1000 µg/mL.
For `CCCCN(CCCC)CCCOc1ccc(-c2cn3cccc(O)c3n2)cc1` [Example 5, 2-(4-Dibutylaminopropoxyphenyl)-8-hydroxyimidazo[1,2-a]pyridine], the minimal effective concentration in assay [3] was 10000 µg/mL.
In the case of `CCCCN(CCCC)CCCOc1ccc(-c2cn3cccc(OCc4ccccc4)c3n2)cc1` [Example 6, 2-(4-Dibutylaminopropoxyphenyl)-8-benzloxyimidazo[1,2-a]pyridine], in assay [1], the half-maximal inhibitory concentration (IC50) is above 8 µM. In the assay on gastric acid secretion, the change in vivo at 20 mg/kg is -16%. For the same compound, in assay [2], the inhibition at 10 µM stood at 35%. Moreover, the minimal effective concentration in assay [3] was 1000 µg/mL.
The matching figures for `CCCCN(CCCC)CCCOc1ccc(-c2nc3c(C)cccn3c2C)cc1` [Example 7, 2-(4-Dibutylaminopropoxyphenyl)-3,8-dimethylimidazo[1,2-a]pyridine]: 1.9 µM, -54%, 27% and 1000 µg/mL.
For the compound `CCCCN(CCCC)CCCOc1ccc(C(=O)c2cn3cccc(C)c3n2)cc1` [Example 8, 2-(4-Dibutylaminopropoxybenzoyl)-8-methylimidazo[1,2-a]pyridine], the IC50 in assay [1] was 0.6 µM. Further, the change in vivo at 20 mg/kg in the assay on gastric acid secretion was -27%. The inhibition at 10 µM in assay [2] came out at 58%. For the same compound, the minimal effective concentration in assay [3] was found to be 10000 µg/mL.
For `CCCCN(CCCC)CCCOc1ccc(C(=O)c2cn3c(C)cc(C)cc3n2)cc1` [Example 9, 2-(4-Dibutylaminopropoxybenzoyl)-5,7-dimethylimidazo[1,2-a]pyridine], in that order: 2.2 µM, -27%, 39% and 10000 µg/mL.
As for `CCCCN(CCCC)CCCOc1ccc(C(=O)c2cn3ccc(C)cc3n2)cc1` [Example 10, 2-(4-Dibutylaminopropoxybenzoyl)-7-methylimidazo[1,2-a]pyridine], the IC50 in assay [1] amounted to 1.6 µM. Further, the inhibition at 10 µM in assay [2] worked out at 42%. Moreover, in assay [3], the minimal effective concentration stood at 10000 µg/mL.
For `CCCCN(CCCC)CCCOc1ccc(C(=O)c2cn3cccc(OCc4ccccc4)c3n2)cc1` [Example 11, 2-(4-Dibutylaminopropoxybenzoyl)-8-benzyloxyimidazo[1,2-]pyridine], in that order: 2.3 µM, 18% and 1000 µg/mL.
For `CCCCN(CCCC)CCCOc1ccc(C(=O)c2cn3cc(Br)ccc3n2)cc1` [Example 12], the half-inhibitory concentration (IC50) in assay [1] amounted to 3 µM. The minimal effective concentration in assay [3] amounted to 10000 µg/mL.
Take `CCCCN(CCCC)CCCOc1ccc(C(=O)c2cnc3c(C)cccn23)cc1` [Example 13, 3-(4-Dibutylaminopropoxybenzoyl)-8-methylimidazo[1,2-a]pyridine]: the half-inhibitory concentration (IC50) in assay [1] turned out to be 0.53 µM. The change in vivo at 40 mg/kg in the assay with gastric acid secretion (40 mg/kg) was -49%. For the same compound, the inhibition at 10 µM in assay [2] was 56%. Moreover, the minimal effective concentration in assay [3] came to 1000 µg/mL.
In the case of `CCCCN(CCCC)CCCOc1ccc(C(=O)c2cnc3ccc(Br)cn23)cc1` [Example 14, 3-(4-Dibutylaminopropoxybenzoyl)-6-bromoimidazo[1,2-a]pyridine], the IC50 in assay [1] came out at 0.2 µM. Further, the change in vivo at 20 mg/kg in the assay on gastric acid secretion is -18%. In addition, in assay [2], the inhibition at 10 µM came to 62%. Further, the minimal effective concentration in assay [3] was 1000 µg/mL.

(Values after patent US4871745A, “2- or 3-aryl substituted imidazo(1,2-A)pyridines and their use as antisecretory agents” (Ortho Pharmaceutical Corporation, priority 1988, dated 1989).)
